Peptide text beside a SMILES is read from it.
target: T1, TGR26 (Rattus norvegicus, UniProt Q56UD9); assay: Receptor binding using [125I-Tyr10]-hGPR8L (1-23) and membrane fraction of TGR26 expressing CHO cells; details: membrane fraction of TGR26 expressing CHO cells, [125I-Tyr10]-hGPR8L (1-23), method of Example 8
T1 construct: expressed in transfected cells; whole cells in A1, membrane fraction in A2 and A3
T1 sequence (Q56UD9 1-329): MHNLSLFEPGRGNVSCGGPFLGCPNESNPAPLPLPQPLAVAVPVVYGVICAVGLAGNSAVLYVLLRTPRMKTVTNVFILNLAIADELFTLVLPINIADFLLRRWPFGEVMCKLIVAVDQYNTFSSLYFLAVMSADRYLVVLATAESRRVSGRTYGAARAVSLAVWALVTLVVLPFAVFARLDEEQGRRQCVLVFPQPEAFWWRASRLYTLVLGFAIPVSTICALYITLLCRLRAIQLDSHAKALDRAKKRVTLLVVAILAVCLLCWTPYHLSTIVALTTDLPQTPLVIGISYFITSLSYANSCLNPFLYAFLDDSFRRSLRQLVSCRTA
Procedure: Using [^125I-Tyr^10]-hGPR8L (1-23) prepared by the method described in Reference Example 15 and a cell membrane fraction prepared from TGR26 expressing cells as described in Example 6, a receptor binding assay was carried out as follows.
Cell membrane fraction prepared from TGR26 expressing cells was diluted to various concentration with assay buffer (25 mM Tris-HCl, 5 mM EDTA, 0.05% CHAPS (3-[(3-Cholamidopropyl) Dimethyl-Ammonio]-1-Propanesulfonate), 0.1% BSA, 0.5 mM PMSF, 1 μg/ml Pepstatin, 20 μg/ml Leupeptin, 4 μg/ml E-64, pH 7.4), and 200 μl each of the diluent was dispensed into polypropilene test tube (Falcon 2053). In order to determine an amount of maximum binding, 2 μl of DMSO and 2 μl of 7 nM [^125I-Tyr^10]-hGPR8L (1-23) were added to the membrane fraction solution. Further, in order to determine a non-specific binding, 2 μl of 100 μM hGPR8L (1-23)/DMSO solution and 2 μl of 7 nM [^125I-Tyr^10]-hGPR8L (1-23) were added to the membrane fraction solution. The reaction was done at 25° C. for 75 minutes, and the reaction mixture was filtered by suction filtration using Whatman glassfilter (GF-F) treated with polyethyleneimine. In addition, the filter was washed twice with 1.5 ml of washing buffer (25 mM Tris-HCl, 5 mM EDTA, 0.05% CHAPS, 0.1% BSA, pH 7.4). After filtration, a radioactivity remaining on the filter was counted using γ-counter, and an amount of specific binding was estimated by subtracting an amount of non-specific binding from an amount of maximum binding.
Where the concentration of membrane fraction was set to 3 μg/ml, an inhibition for the specific binding of [125I-Tyr^10]-hGPR8L (1-23) to the membrane fraction of TGR26 expressing cells by hGPR8L (1-23) and hGPR8L (1-30) was investigated.
A receptor binding activity of human- and porcine-homologue derivatives of GPR8 ligand peptide obtained in the reference examples was measured using a membrane fraction of TGR26 expressing CHO cells and [^125I-Tyr^10]-hGPR8L (1-23) by the method described in Example 8. The receptor binding activity is represented by concentration of 50% inhibition for binding (IC50 value).

IC50 [nM]	SMILES
0.12	CSCC[C@H](NC(=O)[C@H](CC(C)C)NC(=O)[C@H](CC(C)C)NC(=O)CNC(=O)[C@H](C)NC(=O)[C@H](C)NC(=O)[C@H](CCCNC(=N)N)NC(=O)CNC(=O)[C@@H](NC(=O)[C@@H](NC(=O)[C@H](Cc1c[nH]cn1)NC(=O)[C@H](Cc1ccc(O)cc1)NC(=O)[C@H](CCCNC(=N)N)NC(=O)[C@@H]1CCCN1C(=O)[C@H](CO)NC(=O)[C@H](C)NC(=O)[C@@H](NC(=O)[C@H](Cc1c[nH]cn1)NC(=O)[C@H](CCCCN)NC(=O)[C@H](Cc1ccc(O)cc1)NC(=O)CCc1c[nH]c2ccccc12)C(C)C)[C@@H](C)O)C(C)C)C(=O)NCC(=O)N[C@@H](CC(C)C)C(=O)O [IndPr-hGPR8L (2-23)] (HELM PEPTIDE1{[O=C(CCc1c[nH]c2ccccc12)[*:2]].Y.K.H.V.A.S.P.R.Y.H.T.V.G.R.A.A.G.L.L.M.G.L}$$$$V2.0; C-terminus assumed)
1.3	CSCC[C@H](NC(=O)[C@H](CC(C)C)NC(=O)[C@H](CC(C)C)NC(=O)CNC(=O)[C@H](C)NC(=O)[C@H](C)NC(=O)[C@H](CCCNC(=N)N)NC(=O)CNC(=O)[C@@H](NC(=O)[C@@H](NC(=O)[C@H](Cc1c[nH]cn1)NC(=O)[C@H](Cc1ccc(O)cc1)NC(=O)[C@H](CCCNC(=N)N)NC(=O)[C@@H]1CCCN1C(=O)[C@H](CO)NC(=O)[C@H](C)NC(=O)[C@@H](NC(=O)[C@H](Cc1c[nH]cn1)NC(=O)[C@H](CCCCN)NC(=O)[C@H](Cc1ccc(O)cc1)NC(=O)[C@H](N)Cc1c[nH]c2ccccc12)C(C)C)[C@@H](C)O)C(C)C)C(=O)NCC(=O)N[C@@H](CC(C)C)C(=O)O [[D-Trp^1]-hGPR8L (1-23), D-Trp-Tyr-Lys-His-Val -Ala-Ser-Pro-Arg-Tyr-His-Thr-Val-Gly-Arg-Ala-Ala-Gly-Leu-Leu-Met-Gly-Leu]
9.9	CC(C)C[C@H](NC(=O)CNC(=O)[C@H](C)NC(=O)[C@H](C)NC(=O)[C@H](CCCNC(=N)N)NC(=O)CNC(=O)[C@@H](NC(=O)[C@@H](NC(=O)[C@H](Cc1c[nH]cn1)NC(=O)[C@H](Cc1ccc(O)cc1)NC(=O)[C@H](CCCNC(=N)N)NC(=O)[C@@H]1CCCN1C(=O)[C@H](CO)NC(=O)[C@H](C)NC(=O)[C@@H](NC(=O)[C@H](Cc1c[nH]cn1)NC(=O)[C@H](CCCCN)NC(=O)[C@H](Cc1ccc(O)cc1)NC(=O)[C@@H](N)Cc1c[nH]c2ccccc12)C(C)C)[C@@H](C)O)C(C)C)C(=O)O [hGPR8L (1-19), Trp-Tyr-Lys-His-Val-Ala-Ser -Pro-Arg-Tyr-His-Thr-Val-Gly-Arg-Ala-Ala-Gly-Leu] (H-WYKHVASPRYHTVGRAAGL-OH; N-terminus and C-terminus assumed)
0.29	CC(C)C[C@H](NC(=O)CNC(=O)[C@H](CC[S+](C)[O-])NC(=O)[C@H](CC(C)C)NC(=O)[C@H](CC(C)C)NC(=O)CNC(=O)[C@H](C)NC(=O)[C@H](C)NC(=O)[C@H](CCCNC(=N)N)NC(=O)CNC(=O)[C@@H](NC(=O)[C@@H](NC(=O)[C@H](Cc1c[nH]cn1)NC(=O)[C@H](Cc1ccc(O)cc1)NC(=O)[C@H](CCCNC(=N)N)NC(=O)[C@@H]1CCCN1C(=O)[C@H](CO)NC(=O)[C@H](C)NC(=O)[C@@H](NC(=O)[C@H](Cc1c[nH]cn1)NC(=O)[C@H](CCCCN)NC(=O)[C@H](Cc1ccc(O)cc1)NC(=O)[C@@H](N)Cc1c[nH]c2ccccc12)C(C)C)[C@@H](C)O)C(C)C)C(=O)O (stereo partly drawn) [[Met(O)]-hGPR8L (1-23), Trp-Tyr-Lys-His-Val-Ala -Ser-Pro-Arg-Tyr-His-Thr-Val-Gly-Arg-Ala-Ala-Gly-Leu-Leu-Met(O)-Gly-Leu]
